Experiments:
Assay in all cases: absorption spectrum of BV complex; anaerobic bilin reductase assay with HPLC
Type in all cases: biochemical
Settings in all cases: ferredoxin (Synechococcus sp. PCC 7002), FNR, NADPH 100 uM; 10 uM BV, 10 uM PubS; pH 8.5, 30 °C
[1] = biological target: T1, ΔΝ_PpPubS (PpPubS, PubS) (Physcomitrium patens, UniProt I3TC50, F238A/N310R)
T1 construct: residues 1-55 (N-terminal disordered region) deleted; N-terminal His-tag, pET28a, synthetic codon-optimised gene, E. coli C41

[2] = biological target: T2, ΔΝ_PpPubS (PpPubS, PubS) (Physcomitrium patens, UniProt I3TC50, N310R)
T2 construct: residues 1-55 (N-terminal disordered region) deleted; N-terminal His-tag, pET28a, synthetic codon-optimised gene, E. coli C41

[3] = biological target: T3, ΔΝ_PpPubS (PpPubS, PubS) (Physcomitrium patens, UniProt I3TC50, E240A/N310R)
T3 construct: residues 1-55 (N-terminal disordered region) deleted; N-terminal His-tag, pET28a, synthetic codon-optimised gene, E. coli C41
T3 sequence (I3TC50 entry or part of it E240A/N310R): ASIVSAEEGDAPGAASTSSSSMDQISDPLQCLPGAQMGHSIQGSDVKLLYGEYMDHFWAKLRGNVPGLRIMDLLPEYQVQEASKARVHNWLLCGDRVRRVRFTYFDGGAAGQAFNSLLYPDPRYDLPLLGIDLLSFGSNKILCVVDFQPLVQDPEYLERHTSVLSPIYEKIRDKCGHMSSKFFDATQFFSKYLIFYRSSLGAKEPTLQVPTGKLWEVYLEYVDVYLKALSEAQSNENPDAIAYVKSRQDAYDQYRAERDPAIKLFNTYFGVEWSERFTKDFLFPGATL

T2 sequence (I3TC50 entry or part of it N310R): as the sequence (I3TC50 entry or part of it E240A/N310R) above, with A185E counted along it
T1 sequence (I3TC50 entry or part of it F238A/N310R): as the sequence (I3TC50 entry or part of it E240A/N310R) above, with F183A, A185E counted along it

Which “absorption spectrum of BV complex; anaerobic bilin reductase assay with HPLC” value [1] does the source give for `C=CC1=C(C)C(=Cc2[nH]c(C=C3N=C(C=C4NC(=O)C(C)=C4C=C)C(C)=C3CCC(=O)O)c(CCC(=O)O)c2C)NC1=O` [biliverdin IXα] here?
The value was “Spectroscopic observations of these variants showed a decrease in BV after the addition of NADPH”.

And the “absorption spectrum of BV complex; anaerobic bilin reductase assay with HPLC” value [2]?
The value was “PpPubS_N310R exhibited a decrease in BV absorbance similar to the wild-type molecule”.

What about the “absorption spectrum of BV complex; anaerobic bilin reductase assay with HPLC” value [3] of the same compound?
Its value is “Spectroscopic observations of these variants showed a decrease in BV after the addition of NADPH”.

Reference: article PMC11879140, “Engineering of Phycourobilin Synthase: PubS to a Two-Electron Reductase” (Plant and Cell Physiology, 2024)
